Read-outs that look alike come from different tables or passages of the source.

The test system of series [1] is CD8^+ T cell proliferation. The series can be described thus: Mixed leukocyte reaction with BMDCs loaded with lysates of drug-treated MC38 cells. In kind it is cell-based, mouse. Particulars: wild-type BMDCs loaded with lysates of treated MC38 cells; day 5. The method, then: RBC lysed bone marrow obtained from the femurs and tibias of C57BL/6 or P2 microglobulin deficient mice (Jackson Laboratories Cat. 2087) were cultured with mouse IL-3 (PeproTech Cat. 213-13) and mouse FLT3 ligand (PeproTech Cat. 250-31L) both at 10 ng/mL each in RPMI+10% FCS for 7 days to generate bone marrow derived dendritic cells. Separately, […] MC38 treated with splicing inhibitors vs. DMSO or expressing chicken ovalbumin were harvested, washed and resuspended in sterile PBS, and subjected to five cycles of rapid freeze-thaw (alternating between 37° C. and dry ice/acetone) to generate a cell lysate. After brief centrifugation at 100×g, the soluble fraction in PBS was added to bone marrow derived DCs and left to incubate overnight for antigen phagocytosis in the presence of LPS (ThermoFisher Cat. 00-4976-93). DCs were subsequently washed three times to remove cell-free lysates and LPS and incubated in a 1:1 ratio with CFSE-labeled B6 splenic T cells (10^5 stimulators with 10^5 responders) as described above. The MLR was analyzed at day 5 by flow cytometry.

In series [2] the test system is OT-1 transgenic T cells against ovalbumin (OVA)-expressing B16-F10 cells. As to the kind of experiment: OT-1 cytotoxicity assay. Particulars: 18 hours; minimal impairment at doses less than 4 μM. The class given is cell-based, mouse. The method, then:
Bulk splenocytes from OT-1 animals were cultured for three days with 100 U/mL murine IL-2 and 100 μg/mL SIINFEKL (SEQ ID NO:1) peptide to activate CD8^+ T cells. Cultures were subsequently washed thoroughly to remove ova peptide and rested for at least 24 hours prior to use. OT-1 cells were passaged in T cell media with 50 U/mL IL-2 for no more than seven days from animal sacrifice prior to use. For the cytotoxicity assay, tumor cells alone or OT-1+tumor cells (1:1 ratio) were incubated in T cell media for 18 hours under standard conditions with the indicated concentrations of splicing drugs and analyzed by flow cytometry to quantify killing. OT-1 cells and other hematopoietic cells were excluded with the use of CD45, CD3, and CD8 staining. Tumor cell viability was measured using DAPI.

Series [3] has as its system OT-1 T cells. As to the kind of experiment: Intracellular cytokine staining of OT-1 T cells. The class given is cell-based, mouse. Particulars: higher doses. Here is the method: OT-1 cells were prepared and incubated with ovalbumin-expressing tumors as described above in the LAMP-1 assay. For some experiments OT-1 cells were instead left unstimulated (DMSO) or treated with PMA 1 μg/mL+ionomycin 1 μM as a supraphysiologic stimulus. In all cases, T cells underwent a 5-6 hour incubation period in the presence of DMSO or splicing modulators at the indicated concentrations, and with brefeldin A and monensin present for the entire duration. Cells were subsequently washed, stained for surface markers, and then fixed/permeabilized for intracellular staining of the indicated cytokines according to manufacturer instructions (BD Biosciences).

Series [4] concerns OT-1 T cells. The series can be described thus: LAMP-1 T cell degranulation assay. The class given is cell-based, mouse. Conditions: higher doses. Here is the method:
OT-1 cells were generated as described for the cytotoxicity assay and incubated with ovalbumin-expressing tumor cell lines (pre-treated overnight with IFNγ 100 U/mL to upregulate cell-surface MHC I) in the presence of DMSO or varying concentrations of splicing modulator drugs as indicated, in the presence of LAMP-1 antibody for 5-6 hours under standard incubator conditions. After the first hour of incubation, BD GolgiPlug™ (brefeldin A) and BD GolgiStop™ (monensin) was added at […] respectively into cells. At the end of incubation, cells were washed and stained for cell surface markers prior to standard flow cytometry.

The subject of the next series is donor T cells. The series can be described thus: CFSE adoptive T cell transfer with in vivo splicing modulator treatment. Particulars: mouse, in vivo. The method, then:
Splenic T cells were obtained from B6 or CD45.1 donors by CD5 positive selection (Miltenyi Biotec, Cat. 130-049-301), labeled with CellTrace CFSE (ThermoFisher Cat. C34570) at 10 μM, and adoptively transferred by tail vein injection into lethally irradiated B6, Balb/c, or LP/J recipients, with […] labeled donor T cells transferred per recipient. All recipients were irradiated on day −1 prior to adoptive T cell transfer with 7 Gy as a single fraction and continuously received splicing inhibitor drugs or vehicle control at the indicated doses, from day −1 until day of sacrifice, with the initial dose of drug at least 4 hours after lethal irradiation. Indisulam and MS-023 were solubilized for in vivo administration and animals were treated as above. Pladienolide B (Tocris, Cat. 6070) and GEX1A (Cayman Chemicals, Cat. 25136) were both dissolved in vehicle (10% ethanol and 4% Tween-80 in sterile PBS) and administered i.p., with pladienolide B dosed at 10 mg/kg every other day, and GEX1A dosed at 1.25 mg/kg every four days. For in vivo use, EPZ015666 was dissolved in DMSO and solubilized in 0.5% methylcellulose in water to 20 mg/mL; animals were treated daily with 200 mg/kg by oral gavage.

Series [5] relates to bone marrow hematopoietic stem and progenitor cells. As to the kind of experiment: M3434 methylcellulose colony assay. The class given is cell-based, mouse. Here is the method:
25,000 red blood cell-lysed bone marrow mononuclear cells from C57BL/6 mice were plated in duplicates or triplicates in each well of a non-tissue-culture treated 6 well plate with M3434 methylcellulose media in the presence of splicing drugs at the indicated concentrations as per manufacturer's instructions (StemCell Technologies, Cat. 03434) and incubated for seven days prior to quantification of colonies by manual microscopy.

Series [6] can be described thus: Histologic evaluation of immune-related tissue toxicities. The class given is in vivo, mouse. Particulars: tumor-bearing mice. The method, then:
Animal tissues were fixed in 4% paraformaldehyde, decalcified (for bone), dehydrated and paraffin embedded. Blocks were sectioned and stained with hematoxylin and eosin or anti-CD8. Images were acquired using an Axio Observer A1 microscope (Carl Zeiss, Oberkochen, Germany) or scanned using an Aperio AT slide scanner (Leica Biosystems, Buffalo Grove, Ill.). Automated quantification of infiltrating CD8^+ T cells was performed using HALO software (Indica labs, Albuquerque, N. Mex.). Pathologic evaluation of immune-related tissue toxicities was performed in a blinded fashion by one of the authors who is a trained pathologist (Ben Durham, MD).

With `CC(C)Oc1ccc(-c2c[nH]cc2CN(C)CCN)cc1` [MS-023], in series [1], the “CD8^+ T cell proliferation vs DMSO- or no lysate-pulsed control BMDCs” value was “more strongly promoted CD8^+ T cell proliferation”. The “in vitro cytotoxicity of primed OT-1 T cells against OVA-expressing B16-F10 cells” value in series [2] is given as “minimally impaired”. Also, the “ability of OT-1 T cells to secrete IFNγ or TNFα” value with OT-1 T cells [3] was “did not inhibit”. For the same compound, in the series with OT-1 T cells [4], the “ability of OT-1 T cells to degranulate intracellular cytolytic molecules” value is “did not inhibit”. In addition, in the series with donor T cells, the “in vivo T cell proliferation or activation in response to alloantigen” value was “minimal impairment”. Besides, the “hematopoiesis (colony formation)” value in series [5] (micromolar doses, pladienolide B at nanomolar concentrations) is listed as “intact”. Besides, in series [6], the “histologic inflammation or immune infiltrates in skin, lung, gut, or liver” value is “did not result in overt histologic inflammation”.
For `NS(=O)(=O)c1ccc(S(=O)(=O)Nc2cccc3c(Cl)c[nH]c23)cc1` [indisulam], the “CD8^+ T cell proliferation vs DMSO- or no lysate-pulsed control BMDCs” value in series [1] is “more strongly promoted CD8^+ T cell proliferation”. The “in vitro cytotoxicity of primed OT-1 T cells against OVA-expressing B16-F10 cells” value in series [2] is on record as “minimally impaired”. The “ability of OT-1 T cells to secrete IFNγ or TNFα” value with OT-1 T cells [3] is reported as “did not inhibit”. The “ability of OT-1 T cells to degranulate intracellular cytolytic molecules” value in the series on OT-1 T cells [4] is given as “did not inhibit”. Also, in the series on donor T cells, the “in vivo T cell proliferation or activation in response to alloantigen” value is reported as “minimal impairment”. In addition, in series [5], the “hematopoiesis (colony formation)” value is listed as “intact”. Besides, the “histologic inflammation or immune infiltrates in skin, lung, gut, or liver” value in series [6] is listed as “did not result in overt histologic inflammation”.
